Experiments:
Met = Met (Homo sapiens, UniProt P08581); assay: Human Met kinase assay (33P-phosphoryl transfer radiometric, KinaseProfiler); parameters: Human Met (residues R974-S1390 with A1209G and V1290L, 3.4 nM); purchased Eurofins Pharma Discovery Services UK Limited (KinaseProfiler service); settings: biochemical activity; 10 μM ATP; read-out: c-Met IC50
Protocol: Kinase activity and compound inhibition were investigated using the ^33P-Phosphoryl transfer radiometric kinase assay, performed using the KinaseProfiler™ service of Eurofins Pharma Discovery Services UK Limited. Dose-response experiments were performed using nine compound concentrations in a 96-well microtiter plate. For each assay, all compounds were prepared to a 50× final assay concentration (50 μM) in 100% DMSO, then diluted in a half-log series, with the final top concentration at 1 μM. This working stock of the compound was added to the assay well as the first component in the reaction, followed by the remaining components as detailed in the following assay protocols below. The positive control wells (100% kinase activity) contain all components of the reaction including 2% DMSO (control for solvent effects), except the compound of interest. Blank wells contain all components of the reaction, with the reference inhibitor, staurosporine. This reference compound was used to abolish kinase activity and generated the 0% kinase activity base-line. IC50 values were calculated by nonlinear regression analysis using the sigmoidal dose-response (variable slope) curve fit on XLFit version 5.3 (ID Business Solutions).
Human Met (residues R974-S1390 with A1209G and V1290L, 3.4 nM) was incubated with 8 mM MOPS pH 7.0, 0.2 mM EDTA, 250 μM KKKGQEEEYVFIE, 1 mM sodium orthovanadate, 5 mM […], 10 mM magnesium acetate, and 10 μM [γ-^33P-ATP]. The reaction was initiated by the addition of the Mg/ATP mix. After incubation for 40 minutes at room temperature, the reaction was stopped by the addition of phosphoric acid to a concentration of 0.5%. A reaction aliquot of 10 μL was then spotted onto a P30 filtermat and washed four times for 4 minutes in 0.425% phosphoric acid and once in methanol prior to drying and scintillation counting. Incorporated ^33P was measured using the Wallac Microbeta scintillation counter (Perkin Elmer).

Mer = biological target: T1, Mer (Homo sapiens, UniProt Q12866); assay: Mer autophosphorylation ELISA in transient transfected 293A cells; assay type: cell-based; settings: cellular activity; MERTK-transfected 293A cells, phospho-Mer ELISA
T1 construct: host or cells: 293A cells (Thermo Fisher #R70507)
T1 sequence (Q12866 21-999): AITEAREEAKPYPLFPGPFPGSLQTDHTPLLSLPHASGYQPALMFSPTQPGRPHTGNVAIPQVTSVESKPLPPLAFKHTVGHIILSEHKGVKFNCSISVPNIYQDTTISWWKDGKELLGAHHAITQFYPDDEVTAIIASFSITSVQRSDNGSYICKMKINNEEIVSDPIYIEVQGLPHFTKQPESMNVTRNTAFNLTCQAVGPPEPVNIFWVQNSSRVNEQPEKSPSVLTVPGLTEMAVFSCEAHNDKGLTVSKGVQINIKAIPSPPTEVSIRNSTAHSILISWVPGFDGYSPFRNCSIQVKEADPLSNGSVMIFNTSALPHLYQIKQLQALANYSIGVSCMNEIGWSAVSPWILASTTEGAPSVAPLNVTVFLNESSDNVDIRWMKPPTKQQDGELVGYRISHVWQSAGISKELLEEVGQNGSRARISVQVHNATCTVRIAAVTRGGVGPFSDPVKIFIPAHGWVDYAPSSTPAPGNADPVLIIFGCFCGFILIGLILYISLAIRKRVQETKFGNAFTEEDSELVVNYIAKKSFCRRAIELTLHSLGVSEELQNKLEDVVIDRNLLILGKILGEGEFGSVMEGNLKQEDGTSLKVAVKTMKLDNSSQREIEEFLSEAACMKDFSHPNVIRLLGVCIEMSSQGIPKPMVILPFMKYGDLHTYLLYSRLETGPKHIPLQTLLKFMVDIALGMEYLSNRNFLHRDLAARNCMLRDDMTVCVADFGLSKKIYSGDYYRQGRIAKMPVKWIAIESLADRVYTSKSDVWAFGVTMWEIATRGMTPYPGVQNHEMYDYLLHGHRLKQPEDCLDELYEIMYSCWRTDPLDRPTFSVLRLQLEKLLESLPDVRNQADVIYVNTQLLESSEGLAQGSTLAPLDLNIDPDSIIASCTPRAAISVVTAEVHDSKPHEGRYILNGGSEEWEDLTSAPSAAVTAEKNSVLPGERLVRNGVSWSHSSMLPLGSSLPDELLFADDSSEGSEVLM
Protocol: 293A cells (Thermo Fisher #R70507) were seeded at 1.5×10^6 cells/well onto 100 mm dish (Greiner #664169), in DMEM (Thermo Fisher #11995-040) containing 10% FBS (Thermo Fisher #26140-079), 1% MEM NEAA (Thermo Fisher #11140-050), 1% GlutaMax (Thermo Fisher #35050-061), and 1% Penicillin Streptomycin (Thermo Fisher #15140-122). 293A cells were incubated at 37° C., 5% CO2 for 24 h and then transfected with 6 μg MERTK DNA (Genecopoeia #EX-Z8208-M02) using TransIT LT1 transfection reagent (Mirus-Bio #MIR2305). After 24 h incubation, the transfected 293A cells were seeded at 1×10^5 cells/well onto 96-well plates (Corning #3904) in DMEM growth medium overnight. Test compounds were serially diluted to produce an 8-point dose curve in fresh serum-free medium to a final concentration of 0.3% DMSO (vehicle) and added to the cells and incubated for 1 h. Cells were then immediately lysed with 150 μL of cold 1× lysis buffer [20 mM Tris, 137 mM sodium chloride, 2 mM EDTA, 10% glycerol, 1% NP-40 alternative, 1 mM activated sodium orthovanadate, 1 mM PefaBloc SC (Sigma-Aldrich #11429868001), protease/phosphatase inhibitor tablet (Thermo Fisher #A32959)]. Lysates were clarified by centrifugation and 50 μL/well added into the human phospho-Mer DuoSet IC ELISA (R&D Systems #DYC2579-2). Assay was performed according to manufacturer's instructions and sample phospho-Mer concentrations were extrapolated using human phospho-Mer control (R&D Systems #841793) as a standard. Positive control wells (100% activity) contained DMSO-treated cell lysates. Negative control wells (0% activity) contained reference inhibitor-treated cell lysates. IC50 values were calculated by nonlinear regression analysis using a 4-parameter logistic curve fit in ActivityBase XE (IDBS).

Sequence of Met (P08581 974-1390): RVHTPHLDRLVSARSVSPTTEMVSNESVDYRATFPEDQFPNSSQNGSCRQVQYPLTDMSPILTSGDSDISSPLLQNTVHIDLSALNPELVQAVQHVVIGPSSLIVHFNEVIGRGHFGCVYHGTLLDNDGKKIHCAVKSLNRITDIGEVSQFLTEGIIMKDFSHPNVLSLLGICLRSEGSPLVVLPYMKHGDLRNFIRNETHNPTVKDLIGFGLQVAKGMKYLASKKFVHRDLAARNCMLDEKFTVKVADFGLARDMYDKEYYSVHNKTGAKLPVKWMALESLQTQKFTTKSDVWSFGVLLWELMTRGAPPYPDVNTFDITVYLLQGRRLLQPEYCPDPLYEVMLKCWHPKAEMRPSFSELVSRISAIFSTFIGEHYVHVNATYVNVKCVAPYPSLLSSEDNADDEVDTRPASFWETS

| SMILES | IC50 (Met) [nM] | IC50 (Mer) [nM] |
| --- | --- | --- |
| CC1Cc2cc(F)ccc2N1C(=O)C1(C(=O)Nc2ccc(Oc3ccnc4cc(-c5cnn(C)c5)ccc34)cc2)CC1 (centres unmarked) [Compound 80, 1-(5-Fluoro-2-methyl-2,3-dihydroindole-1-carbonyl)-N-[4-[7-(1-methylpyrazol-4-yl)quinolin-4-yl]oxyphenyl]cyclopropane-1-carboxamide] | 10 to 100 | > 300 |
| Cn1cnc(-c2ccc3c(Oc4ccc(NC(=O)C5(C(=O)Nc6ccc(F)cc6)CC5)cc4)ccnc3c2)c1 [Compound 69, 1-N′-(4-Fluorophenyl)-1-N-[4-[7-(1-methylimidazol-4-yl)quinolin-4-yl]oxyphenyl]cyclopropane-1,1-dicarboxamide] | ≤ 10 | 10 to 100 |
| O=C(Nc1ccc(F)cc1)C1(C(=O)Nc2ccc(Oc3ccnc4cc(-c5nnco5)ccc34)cc2)CC1 [Compound 73, 1-N′-(4-Fluorophenyl)-1-N-[4-[7-(1,3,4-oxadiazol-2-yl)quinolin-4-yl]oxyphenyl]cyclopropane-1,1-dicarboxamide] | ≤ 10 | 10 to 100 |
| Cn1ncc(-c2ccc3c(Oc4ccc(NC(=O)C5(C(=O)Nc6ccc(F)cc6)CC5)cc4)ccnc3c2)n1 [Compound 86, 1-N′-(4-Fluorophenyl)-1-N-[4-[7-(2-methyltriazol-4-yl)quinolin-4-yl]oxyphenyl]cyclopropane-1,1-dicarboxamide] | ≤ 10 | 10 to 100 |
| O=C(Nc1ccc(F)cc1)C1(C(=O)Nc2ccc(Oc3ccnc4cc(-c5cnn(CCO)c5)ccc34)cc2)CC1 [Compound 18, 1-N′-(4-Fluorophenyl)-1-N-[4-[7-[1-(2-hydroxyethyl)pyrazol-4-yl]quinolin-4-yl]oxyphenyl]cyclopropane-1,1-dicarboxamide] | ≤ 10 | ≤ 10 |
| Cn1cc(-c2ccc3c(Oc4ccc(NC(=O)C5(C(=O)N6CCc7cc(F)ccc76)CC5)cc4)ccnc3c2)cn1 [Compound 81, 1-(5-Fluoro-2,3-dihydroindole-1-carbonyl)-N-[4-[7-(1-methylpyrazol-4-yl)quinolin-4-yl]oxyphenyl]cyclopropane-1-carboxamide] | ≤ 10 | 100 to 300 |
| CS(=O)(=O)n1cc(-c2ccc3c(Oc4ccc(NC(=O)C5(C(=O)Nc6ccc(F)cc6)CC5)cc4)ccnc3c2)cn1 [Compound 79, 1-N′-(4-Fluorophenyl)-1-N-[4-[7-(1-methylsulfonylpyrazol-4-yl)quinolin-4-yl]oxyphenyl]cyclopropane-1,1-dicarboxamide] | ≤ 10 | 10 to 100 |
| O=C(Nc1ccc(F)cc1)C1(C(=O)Nc2ccc(Oc3ccnc4cc(-c5ccncc5)ccc34)cc2)CC1 [Compound 26, 1-N′-(4-Fluorophenyl)-1-N-[4-(7-pyridin-4-ylquinolin-4-yl)oxyphenyl]cyclopropane-1,1-dicarboxamide] | ≤ 10 | 10 to 100 |

Other lines, results leading:

| IC50 (Met) [nM] | IC50 (Mer) [nM] | SMILES |
| --- | --- | --- |
| ≤ 10 | 10 to 100 | Cc1cc2c(Oc3ccc(NC(=O)C4(C(=O)Nc5ccc(F)cc5)CC4)cc3)ccnc2cc1-c1cnn(C)c1 [Compound 78, 1-N′-(4-Fluorophenyl)-1-N-[4-[6-methyl-7-(1-methylpyrazol-4-yl)quinolin-4-yl]oxyphenyl]cyclopropane-1,1-dicarboxamide] |
| ≤ 10 | 100 to 300 | O=C(Nc1ccc(F)cc1)C1(C(=O)Nc2ccc(Oc3ccnc4cc(C5CCNC5)ccc34)cc2)CC1 (centres unmarked) [Compound 83, 1-N′-(4-Fluorophenyl)-1-N-[4-(7-pyrrolidin-3-ylquinolin-4-yl)oxyphenyl]cyclopropane-1,1-dicarboxamide] |
| ≤ 10 | 10 to 100 | O=C(Nc1ccc(F)cc1)C1(C(=O)Nc2ccc(Oc3ccnc4cc(-c5cccnc5)ccc34)cc2)CC1 [Compound 25, 1-N′-(4-Fluorophenyl)-1-N-[4-(7-pyridin-3-ylquinolin-4-yl)oxyphenyl]cyclopropane-1,1-dicarboxamide] |
| ≤ 10 | ≤ 10 | O=C(Nc1ccc(F)cc1)C1(C(=O)Nc2ccc(Oc3ccnc4cc(-c5cn[nH]c5)ccc34)cc2)CC1 [Compound 67, 1-N′-(4-Fluorophenyl)-1-N-[4-[7-(1H-pyrazol-4-yl)quinolin-4-yl]oxyphenyl]cyclopropane-1,1-dicarboxamide] |
| ≤ 10 | 10 to 100 | O=C(Nc1ccc(F)cc1)C1(C(=O)Nc2ccc(Oc3ccnc4cc(-c5ncco5)ccc34)cc2)CC1 [Compound 66, 1-N′-(4-Fluorophenyl)-1-N-[4-[7-(1,3-oxazol-2-yl)quinolin-4-yl]oxyphenyl]cyclopropane-1,1-dicarboxamide] |
| ≤ 10 | ≤ 10 | O=C(Nc1ccc(F)cc1)C1(C(=O)Nc2ccc(Oc3ccnc4cc(-c5cnn(C6COC6)c5)ccc34)cc2)CC1 [Compound 24, 1-N′-(4-Fluorophenyl)-1-N-[4-[7-[1-(oxetan-3-yl)pyrazol-4-yl]quinolin-4-yl]oxyphenyl]cyclopropane-1,1-dicarboxamide] |
| ≤ 10 | 10 to 100 | O=C(Nc1ccc(F)cc1)C1(C(=O)Nc2ccc(Oc3ccnc4cc(-c5ncc[nH]5)ccc34)cc2)CC1 [Compound 74, 1-N′-(4-Fluorophenyl)-1-N-[4-[7-(1H-imidazol-2-yl)quinolin-4-yl]oxyphenyl]cyclopropane-1,1-dicarboxamide] |
| ≤ 10 | ≤ 10 | CC(=O)N1CCC(n2cc(-c3ccc4c(Oc5ccc(NC(=O)C6(C(=O)Nc7ccc(F)cc7)CC6)cc5)ccnc4c3)cn2)CC1 [Compound 62, 1-N-[4-[7-[1-(1-Acetylpiperidin-4-yl)pyrazol-4-yl]quinolin-4-yl]oxyphenyl]-1-N′-(4-fluorophenyl)cyclopropane-1,1-dicarboxamide] |

— patent US12503438B2, “Compounds for the treatment of kinase-dependent disorders” (Exelixis, Inc., priority 2019, dated 2025)
